Experimental data as given in ChEMBL document CHEMBL1152054, “Synthesis and evaluation of a -lactam-containing dipeptide analog as a protease inhibitor” (Bioorg Med Chem Lett, 1996).

Key:
[1] = Compound was tested for inhibition of carboxypeptidase Y serine protease to produce one-half maximal enzyme activity.
[2] = Compound was tested for inhibition of elastase serine protease to produce one-half maximal enzyme activity.
Chymotrypsinogen B = Chymotrypsinogen B (Homo sapiens, UniProt P17538); test: Compound was tested for inhibition of alpha-chymotrypsin serine protease to produce one-half maximal enzyme activity.
Chain of Chymotrypsinogen B (P17538 34-164 limits assumed, other chains not shown): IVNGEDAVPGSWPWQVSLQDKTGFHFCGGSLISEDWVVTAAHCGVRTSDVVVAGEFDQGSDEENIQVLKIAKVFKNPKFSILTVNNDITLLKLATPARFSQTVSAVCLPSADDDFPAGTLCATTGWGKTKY
Chain of Chymotrypsinogen B (P17538 167-263 limits assumed, other chains not shown): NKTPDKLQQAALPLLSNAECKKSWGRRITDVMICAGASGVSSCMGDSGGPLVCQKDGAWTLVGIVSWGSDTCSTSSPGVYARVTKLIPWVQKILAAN

[3] = Compound was tested for inhibition of proteinase K serine protease to produce one-half maximal enzyme activity.

SMILES: COC(=O)CN1CC(Cc2ccccc2)(NC(=O)c2ccccc2)C1=O (centres undefined)
- Inhibition constant [1]: 0.3 mM
- Inhibition constant [2]: > 1.2 mM
- Inhibition constant (Chymotrypsinogen B): 0.3 mM
- Inhibition constant [3]: > 1.2 mM
